Measurements from ChEMBL document CHEMBL6153122, “Antimycobacterial Activities of the Zanthoxylum leprieurii Metabolite Adubangoamide and Non-Natural Fagaramide Analogues” (2025).
Converted amounts (≈) assume the structure as drawn.

How the values were obtained:
[1] = system: Mycobacterium tuberculosis; experiment: Antimycobacterial activity against multidrug-resistant Mycobacterium tuberculosis 375 by microplate Alamar blue assay; type: functional
[2] = system: Mycobacterium tuberculosis; experiment: Antimycobacterial activity against multidrug-resistant Mycobacterium tuberculosis 375; type: functional

Compound	MIC [1] [µM]	MIC [2] [µM]
O=C(/C=C/c1ccc2c(c1)OCO2)NCc1ccccc1	667 (≈ 188 µg/mL)	
CN(C)c1ccc(CNC(=O)/C=C/c2ccc3c(c2)OCO3)cc1	3560 (≈ 1150 µg/mL)	
CC(C)=CCOc1ccc(/C=C/C(=O)NCC(C)C)cc1	1200 (≈ 345 µg/mL)	
O=C(/C=C/c1ccc2c(c1)OCO2)NCc1ccc(N2CCC(C(F)(F)F)CC2)cc1	2310 (≈ 1000 µg/mL)	
O=C(/C=C/c1ccc2c(c1)OCO2)NCc1ccccc1Cl	792 (≈ 250 µg/mL)	
O=C(/C=C/c1ccc2c(c1)OCO2)NCc1ccc(C(F)(F)F)cc1F	1020 (≈ 375 µg/mL)	
O=C(/C=C/c1ccc2c(c1)OCO2)NCc1cc(F)cc(F)c1	788 (≈ 250 µg/mL)	
O=C(/C=C/c1ccc2c(c1)OCO2)NCc1ccc(N2CCC(c3ccc(F)cc3)CC2)cc1	545 (≈ 250 µg/mL)	
COc1cccc(CNC(=O)/C=C/c2ccc3c(c2)OCO3)c1	803 (≈ 250 µg/mL)	
CC(C)CNC(=O)/C=C/c1ccc2c(c1)OCO2 [FOGARAMIDE]		1010 (≈ 250 µg/mL)
